ChEMBL document CHEMBL1201862, “PubChem BioAssay data set” (2004)
“And” between values parts separate entries of the source, which are not always exact repeats. Identical values can stand only once.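 Protocol summary: plate cells (96-well), add compound at 5 concentrations, incubate 48 h, interpolate endpoints linearly. GI50 is the concentration that inhibits growth by half.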 The source made the active and inactive calls. No stated cut-off is given here; in the data, active = GI50 up to about 1.1 µM and inactive = higher.

How the values were obtained:
Test in all cases: DTP human tumour cell line panel, 48 h
A549 = tested on: A549
A498 = tested on: A498
SF-295 = tested on: SF-295
COLO 205 = tested on: COLO 205
MDA-MB-435 = tested on: MDA-MB-435
SN12C = tested on: SN12C
MDA-N = tested on: MDA-N
HCT-15 = tested on: HCT-15
SF-539 = tested on: SF-539
MCF7 = tested on: MCF7
UACC-62 = tested on: UACC-62
CCRF-CEM = tested on: CCRF-CEM
NCI/ADR-RES = tested on: NCI/ADR-RES
SW-620 = tested on: SW-620
786-0 = tested on: 786-0
MOLT-4 = tested on: MOLT-4
RXF 393 = tested on: RXF 393
HCC 2998 = tested on: HCC 2998
SR = tested on: SR

Structure (SMILES) | GI50 (A549) | GI50 (A498) | GI50 (SF-295) | GI50 (COLO 205) | GI50 (MDA-MB-435) | GI50 (SN12C) | GI50 (MDA-N) | GI50 (HCT-15) | GI50 (SF-539) | GI50 (MCF7) | GI50 (UACC-62) | GI50 (CCRF-CEM) | GI50 (NCI/ADR-RES) | GI50 (SW-620) | GI50 (786-0) | GI50 (MOLT-4) | GI50 (RXF 393) | GI50 (HCC 2998) | GI50 (SR)
CC/C(=N\NC(=O)c1cccnc1)c1ccc2c(c1)OCCO2 | > 100 µM (inactive) | > 100 µM (inactive) | > 100 µM (inactive) | > 100 µM (inactive) | 34.5 µM (inactive) | > 100 µM (inactive) | 30.9 µM (inactive) | > 100 µM | > 100 µM (inactive) | 66.5 µM (inactive) | 87.9 µM (inactive) | > 100 µM (inactive) | > 100 µM (inactive) | > 100 µM (inactive) | > 100 µM (inactive) | > 100 µM (inactive) | > 100 µM (inactive) | – | –
NS(=O)(=O)c1nnc(NC(=S)NC(=O)Nc2ccc(Cl)c(Cl)c2)s1 | 32 µM (inactive) | – | 21.2 µM (inactive) | 19.5 µM (inactive) | 19.4 µM (inactive) | 26.7 µM (inactive) | – | 19.7 µM | 2.39 µM (inactive) | 38 µM (inactive) | 17.5 µM (inactive) | 28.1 µM (inactive) | 25.4 µM (inactive) | 22.5 µM (inactive) | 28.3 µM (inactive) | 29 µM (inactive) | 19.1 µM (inactive) | – | –
CC(=O)/C(=C\NC(=S)Nc1ccc(S(N)(=O)=O)cc1)C(=O)Nc1ccccc1C | 60.4 µM (inactive) | – | 36 µM (inactive) | 18.5 µM (inactive) | 32.3 µM (inactive) | 71 µM (inactive) | – | 41.3 µM | 74 µM (inactive) | 40.7 µM (inactive) | 35.2 µM (inactive) | 16 µM (inactive) | > 100 µM (inactive) | 37.4 µM (inactive) | 41.9 µM (inactive) | 28.5 µM (inactive) | 37.1 µM (inactive) | 54.8 µM (inactive) | –
N/C(=N\c1ccc(Cl)cc1)NS(=O)(=O)c1ccc(-c2ccccn2)s1 | 19.1 µM (inactive) | 12.5 µM (inactive) | 17.5 µM (inactive) | 17.4 µM (inactive) | – | 15.5 µM (inactive) | 6.89 µM (inactive) | 17.5 µM | 14.9 µM (inactive) | 17.1 µM (inactive) | 13.4 µM (inactive) | – | 18.1 µM (inactive) | 19.4 µM (inactive) | 15.2 µM (inactive) | 2.41 µM (inactive) | 16.8 µM (inactive) | – | 14.5 µM (inactive)
O=C(CNCc1ccccc1)Oc1c(Cl)c(Cl)c(Cl)c(Cl)c1Cl | 30.4 µM (inactive) | – | 27.2 µM (inactive) | 25 µM (inactive) | 35.2 µM (inactive) | 31.2 µM (inactive) | – | 25.4 µM | 32.3 µM (inactive) | 38.5 µM (inactive) | 21.5 µM (inactive) | – | 33.7 µM (inactive) | 32.5 µM (inactive) | 93.1 µM (inactive) | 22.3 µM (inactive) | 74.8 µM (inactive) | 22.8 µM (inactive) | 21.8 µM (inactive)
O=C(NCCN(CCNC(=O)c1cccc(O)c1O)CCNC(=O)c1cccc(O)c1O)c1cccc(O)c1O [TRENCAM] | 15 µM (inactive) | 51.9 µM (inactive) | 25.4 µM (inactive) | 5.15 µM (inactive) | 21.7 µM (inactive) | 8.55 µM (inactive) | 9.31 µM (inactive) | 10.4 µM | 3.85 µM (inactive) | 9.55 µM (inactive) | 4.78 µM (inactive) | – | 49.4 µM (inactive) | 2.4 µM (inactive) | 5.89 µM (inactive) | – | 7.87 µM (inactive) | 3.4 µM (inactive) | –
CCCCSC1=N/C(=C\c2ccc(N(C)C)cc2)C(=O)N1 | 17.3 µM (inactive) | 13.9 µM (inactive) | 28.4 µM (inactive) | 35.5 µM (inactive) | 28.6 µM (inactive) | 16.3 µM (inactive) | 33.6 µM (inactive) | 53.5 µM | 24.5 µM (inactive) | 30.5 µM (inactive) | 20.7 µM (inactive) | > 100 µM (inactive) | 82.6 µM (inactive) | 48.2 µM (inactive) | 17.9 µM (inactive) | 57.5 µM (inactive) | 30 µM (inactive) | – | –
COc1ccc(N2C(=O)c3cc(C)cnc3S2(=O)=O)cc1 | > 100 µM (inactive) | – | > 100 µM (inactive) | > 100 µM (inactive) | > 100 µM (inactive) | > 100 µM (inactive) | > 100 µM (inactive) | > 100 µM | – | – | > 100 µM (inactive) | > 100 µM (inactive) | > 100 µM (inactive) | > 100 µM (inactive) | > 100 µM (inactive) | > 100 µM (inactive) | > 100 µM (inactive) | > 100 µM (inactive) | > 100 µM (inactive)
CC(C)(C)C(=O)C(C(c1ccccc1)N1CCOCC1)N1CCOCC1 (centres undefined) | > 100 µM (inactive) | > 100 µM (inactive) | > 100 µM (inactive) | – | > 100 µM (inactive) | > 100 µM (inactive) | > 100 µM (inactive) | > 100 µM | – | – | > 100 µM (inactive) | > 100 µM (inactive) | > 100 µM (inactive) | > 100 µM (inactive) | > 100 µM (inactive) | > 100 µM (inactive) | > 100 µM (inactive) | > 100 µM (inactive) | > 100 µM (inactive)
C[C@@H](C(=O)O)N1C(c2ccco2)=C(/C(C=O)=C\c2ccco2)C(=O)/C1=C\c1ccco1 | > 100 µM (inactive) | > 100 µM (inactive) | > 100 µM (inactive) | > 100 µM (inactive) | > 100 µM (inactive) | > 100 µM (inactive) | > 100 µM (inactive) | > 100 µM | > 100 µM (inactive) | > 100 µM (inactive) | > 100 µM (inactive) | > 100 µM (inactive) | > 100 µM (inactive) | > 100 µM (inactive) | > 100 µM (inactive) | > 100 µM (inactive) | > 100 µM (inactive) | – | –
COc1ccc(C2C3=C(N=C4SC(C(C)=O)=C(C)N42)c2ccccc2CC3)cc1 (centres undefined) | 83 µM (inactive) | > 100 µM (inactive) | > 100 µM (inactive) | > 100 µM (inactive) | > 100 µM (inactive) | > 100 µM (inactive) | 21.1 µM (inactive) | > 100 µM | > 100 µM (inactive) | 92.7 µM (inactive) | 45.7 µM (inactive) | 28.8 µM (inactive) | > 10 µM (inactive) | > 100 µM (inactive) | > 100 µM (inactive) | – | 23.7 µM (inactive) | 42.4 µM (inactive) | –
O=C1c2ccccc2-c2c3c(cc4ccnc1c24)OCO3 [LIRIODENINE] | 3.48 µM (inactive) and 3.47 µM (inactive) | 3.48 µM (inactive) | 6.12 µM (inactive) and 4.86 µM (inactive) | 4.79 µM (inactive) and 4.24 µM (inactive) | – | 4.98 µM (inactive) and 5.82 µM (inactive) | – | 4.9 µM and 4.42 µM | – | – | 4.57 µM (inactive) and 2.77 µM (inactive) | 4.1 µM (inactive) and 2.7 µM (inactive) | – | 4.92 µM (inactive) and 3.82 µM (inactive) | 4.25 µM (inactive) and 7.69 µM (inactive) | 3.38 µM (inactive) and 3.67 µM (inactive) | 5.55 µM (inactive) and 5.06 µM (inactive) | 4.51 µM (inactive) | –
Cc1ccc(/C(Cl)=C/C=C(C#N)C#N)cc1 | 21.9 µM (inactive) | – | 13.3 µM (inactive) | 3.31 µM (inactive) | 2.47 µM (inactive) | 3.72 µM (inactive) | – | 2.1 µM | 2.64 µM (inactive) | 30.4 µM (inactive) | 4.51 µM (inactive) | 0.441 µM (active) | 2.18 µM (inactive) | 1.91 µM (inactive) | 1.88 µM (inactive) | 0.65 µM (active) | 2.61 µM (inactive) | – | 1.37 µM (inactive)
NC(=S)N/N=c1\cc(C(=O)Nc2ccc([N+](=O)[O-])cc2[N+](=O)[O-])oc2ccccc12 | > 100 µM (inactive) | – | > 100 µM (inactive) | > 100 µM (inactive) | > 100 µM (inactive) | > 100 µM (inactive) | > 100 µM (inactive) | > 100 µM | > 100 µM (inactive) | > 100 µM (inactive) | > 100 µM (inactive) | > 100 µM (inactive) | > 100 µM (inactive) | > 100 µM (inactive) | > 100 µM (inactive) | > 100 µM (inactive) | > 100 µM (inactive) | > 100 µM (inactive) | –
CCOC(=O)c1nc2ccc(C(F)(F)F)cc2nc1Oc1ccc(C(=O)OC)cc1 | – | > 100 µM (inactive) | 54.8 µM (inactive) | > 100 µM (inactive) | 71.1 µM (inactive) | – | – | > 100 µM | 77.8 µM (inactive) | 43.1 µM (inactive) | 59.4 µM (inactive) | > 100 µM (inactive) | > 100 µM (inactive) | > 100 µM (inactive) | 66.1 µM (inactive) | > 100 µM (inactive) | 64.6 µM (inactive) | > 100 µM (inactive) | > 100 µM (inactive)
CN1CN(c2ccccc2)C2(CCN(Cc3nc4ccccc4s3)CC2)C1=O | 17.3 µM (inactive) | 15.9 µM (inactive) | 17.9 µM (inactive) | 18.1 µM (inactive) | 17.8 µM (inactive) | 17.5 µM (inactive) | – | 18.8 µM | 17.8 µM (inactive) | 15.7 µM (inactive) | 16 µM (inactive) | 17.3 µM (inactive) | 15.5 µM (inactive) | – | 17.2 µM (inactive) | 15.1 µM (inactive) | 14.6 µM (inactive) | – | 14.8 µM (inactive)
COC(=O)/C=C\C(C#N)(C#N)/N=C/c1ccc(Br)s1 | 21.2 µM (inactive) | 17.7 µM (inactive) | 17.7 µM (inactive) | 2.31 µM (inactive) | 5.56 µM (inactive) | 15.2 µM (inactive) | 7.98 µM (inactive) | 2.18 µM | – | 2.47 µM (inactive) | 10.7 µM (inactive) | 0.853 µM (active) | 18.6 µM (inactive) | 2.07 µM (inactive) | 5.42 µM (inactive) | 2.07 µM (inactive) | 2.03 µM (inactive) | 19.1 µM (inactive) | –
